The results in this text go back to ChEMBL document CHEMBL3352577, “A simple and widely applicable hit validation strategy for protein-protein interaction inhibitors based on a quantitative ligand displacement assay” (Bioorg Med Chem Lett, 2014).

Assay [1] has as its target T1, Induced myeloid leukemia cell differentiation protein Mcl-1 (Homo sapiens, UniProt Q07820). Put plainly: Displacement of F-bid from human recombinant N-terminal His-tagged Mcl-1 (1 to 319) expressed in Escherichia coli BL21(DE3) after 120 mins by TR-FRET assay. On the technique in general: TR-FRET usually uses a lanthanide donor and a delayed reading to cut background.

Assay [2] addresses T2, Bcl-2-like protein 1 (Homo sapiens, UniProt Q07817). Nature of the assay: Displacement of F-bid from human recombinant N-terminal His-tagged Bcl-xL (1 to 209) expressed in Escherichia coli BL21(DE3) after 2 hrs by fluorescence polarization assay. On the technique in general: In fluorescence polarisation assays a small probe gives low polarisation when free and higher when bound to something large.

Assay [3] addresses T2, Bcl-2-like protein 1. Put plainly: Displacement of F-bid from human recombinant N-terminal His-tagged Bcl-xL (1 to 209) expressed in Escherichia coli BL21(DE3) after 120 mins by TR-FRET assay.
The target in assay [4] is T2, Bcl-2-like protein 1. Nature of the assay: Reversible inhibition of human recombinant N-terminal His-tagged Bcl-xL (1 to 209) expressed in Escherichia coli BL21(DE3) after 30 to 120 mins by TR-FRET assay in presence of F-bid.
The target in assay [5] is T2, Bcl-2-like protein 1. Nature of the assay: Displacement of F-bid from human recombinant N-terminal His-tagged Bcl-xL (1 to 209) expressed in Escherichia coli BL21(DE3) after 30 mins by TR-FRET assay.
Assay [6] addresses T1, Induced myeloid leukemia cell differentiation protein Mcl-1. Nature of the assay: Displacement of F-bid from human recombinant N-terminal His-tagged Mcl-1 (1 to 319) expressed in Escherichia coli BL21(DE3) after 2 hrs by fluorescence polarization assay.

T1 sequence (Q07820 whole entry): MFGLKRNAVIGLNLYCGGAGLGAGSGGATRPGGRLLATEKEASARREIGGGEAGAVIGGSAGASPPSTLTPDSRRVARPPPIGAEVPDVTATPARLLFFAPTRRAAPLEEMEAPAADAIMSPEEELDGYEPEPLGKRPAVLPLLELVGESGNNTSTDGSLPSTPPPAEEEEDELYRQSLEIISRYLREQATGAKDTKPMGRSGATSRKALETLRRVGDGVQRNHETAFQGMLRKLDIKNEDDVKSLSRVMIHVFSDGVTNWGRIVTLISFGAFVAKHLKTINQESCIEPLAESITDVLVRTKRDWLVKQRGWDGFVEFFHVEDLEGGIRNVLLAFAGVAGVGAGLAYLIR
T2 sequence (Q07817 whole entry): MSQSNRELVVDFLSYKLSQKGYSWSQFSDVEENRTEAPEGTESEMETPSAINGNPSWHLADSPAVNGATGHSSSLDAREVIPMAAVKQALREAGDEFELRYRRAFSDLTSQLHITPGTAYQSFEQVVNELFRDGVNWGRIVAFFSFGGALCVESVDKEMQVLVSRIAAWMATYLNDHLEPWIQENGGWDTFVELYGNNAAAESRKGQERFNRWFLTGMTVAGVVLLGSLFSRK

As usually defined, the Ki is the equilibrium dissociation constant of an inhibitor or competing ligand from its target. As a reminder, the IC50 is the midpoint of a concentration-inhibition curve. As for `O=C(CC(Sc1ccc(Cl)cc1)C(=O)O)c1ccc(C2CCCCC2)cc1` (centres undefined), the inhibition constant Ki worked out at 12 µM in assay [1]; 4.7 µM on Bcl-2-like protein 1 [2]; 12 µM at Bcl-2-like protein 1 [3]; 13 µM on Bcl-2-like protein 1 [4]; 14 µM in assay [6]. The IC50 was determined as 19 µM at Bcl-2-like protein 1 [3] and 18 µM on Bcl-2-like protein 1 [5].
With `O=C(CC(Cc1ccc(Cl)cc1)C(=O)O)c1ccc(C2CCCCC2)cc1` (centres undefined), the Ki in assay [1] worked out at 20 µM; at Bcl-2-like protein 1 [4] it was 9 µM.
